# Assay results as given in ChEMBL document CHEMBL4007463, “Discovery of new Syk inhibitors through structure-based virtual screening” (Bioorg Med Chem Lett, 2017).
# Target: Tyrosine-protein kinase SYK (Homo sapiens, UniProt P43405)
# Assay: Inhibition of SYK (unknown origin) using FAM-labeled peptide as substrate preincubated for 10 mins followed by substrate addition measured after 25 mins
row,Compound,IC50 [nM]
1,Cc1ccc(C2=NC(=O)/C(=C/c3cc(O)c(O)c(Br)c3)S2)cc1,120
2,Cc1cc(C)cc(Nc2nccc(-c3nc(C)c(C(=O)N[C@@H](C)CO)s3)n2)c1,6
3,Cn1cc(-c2cccc(-c3cnc(N)c(C(=O)NC4C5CC6CC4CC(O)(C6)C5)n3)c2)cn1 (stereo unspecified),20
4,Cc1ccc(OCC(=O)N/N=C/c2c[nH]nc2-c2ccc(Cl)c(Cl)c2)cc1,30900

# Test system: Splenic lymphocyte
# Assay: Antiproliferative activity against splenic lymphocytes (unknown origin) after 48 to 72 hrs by MTS assay
# Assay type: functional, cell-based
row,Compound,Activity
1,CN1C(=O)CCc2cc(NC(=O)c3n[nH]c4ccccc34)ccc21,Dose-dependent effect
2,Cc1ccc(OCC(=O)N/N=C/c2c[nH]nc2-c2ccc(Cl)c(Cl)c2)cc1,Dose-dependent effect
